Values of other authors as cited in patent US20210386111A1, “AEROSOLISABLE FORMULATION” (NICOVENTURES TRADING LIMITED, priority 2018, published 2021).

## 2-hydroxy-propyl-β-cyclodextrin
  solubility in water compared to base cyclodextrins such as β-cyclodextrin: increased solubility in water
